Experimental data taken from patent US20120321584A1, “PROCESSES FOR PREPARING AMINE SALTS OF KMUP-3 AND USE THEREOF” (KAOHSIUNG MEDICAL UNIVERSITY, priority 2011, published 2012).

How the values were obtained:
[1] = tested on: ROCKII; test: ROCKII expression in electrically-stimulated left atria, Western blotting; type: cell-based, guinea-pig
Protocol: (§1) Protein extraction and Western blotting analysis. Briefly, after incubation with test agents in an organ bath, isolated beating atrium was frozen and pulverized to a fine powder at the temperature of liquid nitrogen. Atrium powders were then homogenized in protein extraction reagent (Pierce Biotechnology, Inc., Rockford, Ill.) by sonication. The samples were sonicated 10 sec three times and centrifuged at 13,000 rpm at 4° C. for 30 min. The protein concentrations of supernatants were determined by using bovine serum albumin as the standard. The cell extracts were then boiled in a ratio of 4:1 with sample buffer (Tris 100 mM, pH 6.8; glycerol 20%, Sodium dodecyl sulfate (SDS) 4% and bromophenol blue 0.2%). Electrophoresis was performed using 10% SDS-PAGE and transferred to nitrocellulose membranes (Millipore Corp., Billerica, Mass.). The membrane was blocked with Tris-buffered saline (TBS; 20 mM Tris and 137 mM NaCl, pH 7.6) containing 0.1% Tween 20 (TTBS) and 5% nonfat milk at room temperature for 1 h, washed with TTBS, and then incubated overnight at 4° C. in the appropriate primary antibody for PKARI, RhoA, ROCKII, p-CIP-17, CPI-17 and PKG1α1β. The membranes were washed in TTBS before being incubated with horseradish peroxidase-conjugated antibody against mouse, goat, or rabbit IgG for 1 hr. Membranes were then washed in TTBS and developed with the enhanced chemiluminescence for the detection of the specific antigen. The intensity of the bands was measured by densitometry. eNOS or phosphorylated eNOS were extracted from cell culture of neonatal myocytes, PA ring and aortic ring (2-3 mm) of rats and measured by Western blotting analysis.
(§2) PK, ROCKII and CIP-17 expression and pretreatment of beating left atrium. To examine whether KMUP-3 or KMUP-3 amine salt affects the protein expression in beating atrium, PKA, ROCKII, PKG and phosphorylated CIP-17 was determined by Western blotting, respectively. […]

[2] = tested on: PKA; test: PKA expression in electrically-stimulated left atria, Western blotting; type: cell-based, guinea-pig
Protocol: as §1, §2

[3] = tested on: PKCα; test: PKCα translocation of beating left atrium; type: cell-based, guinea-pig; conditions: KMUP-3 1 μM, left atrium cells
Protocol: To determine the effect of KMUP-3 or KMUP-3 amine salt on PKCa translocation, isolated left beating atrium was incubated with KMUP-3 or KMUP-3 amine salt for 30 minutes (0.1-10 μM). In brief, frozen left atrium was pulverized to a fine powder at the temperature of liquid nitrogen for preparation of cytosolic and membrane fractions. Isolated left atrium tissues were then homogenized by a sonicator (XL-2020, Heat Systems Ultrasonic, Plainview, N.Y., USA) at 4 in 1 ml of homogenization buffer containing 20 mM Tris-HCl (pH 7.5), 1 mM dithiothreitol (DTT), 5 mM EGTA, 2 mM EDTA, 0.5 mM PMSF, 20 μM leupeptin and 20 μM aprotinin. The cytosol fractions were obtained by collecting the supernatants after centrifuging the cells at 100,000×g for 45 minutes at 4. The pellets were resonicated in the homogenizing buffer with 1% Triton X-100, centrifuged again at 100,000×g for 45 minutes at 4, and the supernatants collected as membrane fractions. The extracts for cytosol and membrane fractions were denatured by heating at for 10 minutes in sampling buffer, and an aliquot containing 20 μg of total protein was subjected to a 10% SDS-polyacrylamide gel electrophoresis. […] Protein was detected with horseradish peroxidase (HRP) conjugated secondary antibody (BD Transduction Laboratories). […] The immunoreactive bands were detected by chemiluminescence (ECL) reagents (PerkinElmer Life Sciences, Inc).

[4] = tested on: cAMP; test: cAMP in neonatal myocytes; type: cell-based, rat
Protocol: (§3) eNOS/p-NOS and cAMP/cGMP in neonatal myocytes. To determine the role of the NO/cGMP-pathway in heart, neonatal rat myocyte protein was extracted followed by Western blotting to measure the expression of eNOS, phosphorylated eNOS (p-eNOS), cAMP, and cGMP (FIG. 14 A-14 B and FIG. 15 A-15 B). KMUP-3 increased eNOS and p-eNOS in neonatal rat cardiomyocytes and the effect was reduced by L-NAME (100 μM)-pretreatment (FIG. 14A and FIG. 14B). KMUP-3 increased both cAMP and cGMP.

[5] = tested on: cGMP; test: cGMP in neonatal myocytes; type: cell-based, rat
Protocol: as §3

[6] = tested on: RhoA; test: RhoA activation of neonatal myocytes, affinity precipitation assay; type: cell-based, rat
Protocol: RhoA activation was determined using an affinity precipitation assay, which binds only the active GTP-bound form of Rho. In brief, sub-confluent neonatal rat myocytes were grown to approximately 85-90% confluence, cells were exposed to KMUP-3 or KMUP-3 amine salt with 10% FBS for 90 min at 37 before addition of lysis buffer (25 mM HEPES, pH 7.5, 150 mM NaCl, 1% Igepal CA-630, 10 mM MgCl2, 1 mM EDTA and 10% glycerol, 1 Ag/ml aprotinin, 10 Ag/ml leupeptin and 1 mmol/l […]) for 15 min at 4, cell lysates were clarified by centrifugation at 13000 g at 4 for 10 min, and equal volume of lysates were incubated with agarose conjugated rhotekin-RBD for 45 min at 4, then washed three time with lysis buffer. Agarose beads were boiled in SDS-PAGE sample buffer to release active RhoA in samples were resolved on a 12% polyacrylamide gel followed by immunoblotting with anti-Rho A (clone 55).

[7] = tested on: ROCKII; test: ROCKII expression in aorta and pulmonary artery rings, Western blotting; type: cell-based, rat; conditions: aorta and pulmonary artery (PA) ring
Protocol: ROCKII expression and vascular resistance. To determine whether KMUP-3's ROCKII activity increased vascular resistance, aorta and pulmonary artery (PA) ring protein was extracted followed by Western blotting to measure the expression ROCKII and eNOS.
as §1, with “The membrane was blocked with Tris-buffered saline (TBS; 20 mM Tris and 137 mM NaCl, pH 7.6) containing 0.1% Tween 20 (TTBS) and 5% nonfat milk at room temperature for 1 h, washed with TTBS, and then incubated overnight at 4° C. in the appropriate primary antibody for PKARI, RhoA, ROCKII, p-CIP-17, CPI-17 and PKG1α1β. The membranes were washed in TTBS before being incubated with horseradish peroxidase-conjugated antibody against mouse, goat, or rabbit IgG for 1 hr. Membranes were then washed in TTBS and developed with the enhanced chemiluminescence for the detection of the specific antigen.” left out

`Cn1c(=O)c2c(ncn2CCN2CCN(c3ccc([N+](=O)[O-])cc3)CC2)n(C)c1=O` [KMUP-3, 7-[2-[4-(4-nitrobenzene)piperazinyl]ethyl]-1,3-dimethylxanthine] was tested, and the ROCKII expression ([1]; FIG. 13A, concentration not given) was “significantly increased”, the ROCKII expression ([1]; KMUP-3 0.1-10 μM) was “significantly increased” and the PKA expression ([2]; FIG. 13B, concentration not given) was “significantly increased”. For the same compound, the PKA expression ([2]; KMUP-3 0.1-10 μM) was “significantly increased”, the “Translocation of PKCα from cytosol to membrane” value [3] was “significantly increased” and the cAMP [4] was “increased”. The cGMP [5] was “increased”, the “cGMP increase compared with cAMP increase” value [5] was “increased more than the former” and the “Rho A activation (active GTP-bound form)” value [6] was “increased”. The “Vascular ROCKII expression” value [7] was “did not increase”.
